Laboratory results published in patent publication US6517742B1, “Sunscreen agents, photoprotective cosmetic compositions containing them and uses thereof” (L'Oreal, priority 1996, dated 2003).

Test: UV absorption spectrum in ethanol (λmax, εmax)
Type: physicochemical
Design: UV εmax: unit not given beside the values
Conditions: for UV εmax: at λmax

Q: Which “UV λmax” value (Ethanol) does the source give for `Cc1cc(Nc2nc(NCCC[Si](C)(O[Si](C)(C)C)O[Si](C)(C)C)nc(NCCC[Si](C)(O[Si](C)(C)C)O[Si](C)(C)C)n2)c(O)c(-n2nc3ccccc3n2)c1` [Example 4, 2-(2-benzotriazol-2-yl-4-methyl-6-ylaminophenol)-4,6-bis{[1,3,3,3-tetramethyl-1-[(trimethylsilyl)oxy]disiloxanyl]propyl-3-ylamino}-s-triazine] here?
A: The value was 324 nm.

Q: What about the “UV εmax” value (Ethanol) of the same compound?
A: Its value is 22,000.

Q: Which “UV λmax” value (95% Ethanol) does the source give for `CCCCOC(=O)c1ccc(Nc2nc(NCCC[Si](C)(O[Si](C)(C)C)O[Si](C)(C)C)nc(Nc3ccc(C(=O)OCCCC)cc3)n2)cc1` [Example 3, 2,4-bis(butyl 4′-ylaminobenzoate)-6-{[1,3,3,3-tetramethyl-1-[(trimethylsilyl)oxy]disiloxanyl]propyl-3-ylamino}-s-triazine] here?
A: The value was 310 nm.

Q: And the “UV εmax” value (95% Ethanol)?
A: Its value is 75,510.

Q: Which results are given for “2-(butyl 4′-ylaminobenzoate)-4,6-bis{[1,3,3,3-tetramethyl-1-[(trimethylsilyl)oxy]disiloxanyl]propyl-3-ylamino}-s-triazine [Example 1]”?
A: UV λmax (Ethanol): 300 nm; UV εmax (Ethanol): 40,800

Q: For `CC12CCC(C(=Cc3ccc(Nc4nc(NCCC[Si](C)(O[Si](C)(C)C)O[Si](C)(C)C)nc(Nc5ccc(C=C6C(=O)C7(C)CCC6C7(C)C)cc5)n4)cc3)C1=O)C2(C)C` [Example 2, 2,4-bis(4′-ylamnobenzylidenecamphor)-6-{[1,3,3,3-tetramethyl-1-[(trimethylsilyl)oxy]disiloxanyl]propyl-3-ylamino}-s-triazine], which “UV λmax” value (Ethanol) is on record?
A: Its value is 354 nm.

Q: And the “UV εmax” value (Ethanol)?
A: Its value is 66,460.

Q: Which “UV λmax” value (Ethanol) does the source give for `CC(C)COC(=O)C(=Cc1ccc(Nc2nc(NCCC[Si](C)(O[Si](C)(C)C)O[Si](C)(C)C)nc(Nc3ccc(C=C(C(=O)OCC(C)C)C(=O)OCC(C)C)cc3)n2)cc1)C(=O)OCC(C)C` [Example 5, 2,4-bis(diisobutyl 4′-ylaminobenzalmalonate)-6-{[1,1,1,3-tetramethyl-1-[(trimethylsilyl)oxy]disiloxanyl]propyl-3-ylamino}-s-triazine] here?
A: The value was 356.5 nm.

Q: What about the “UV εmax” value (Ethanol) of the same compound?
A: The value was 65,650.
